Laboratory results published in patent US4668782A, “Anhydrous crystalline or crystalline hemihydrate monohydrate or trihydrate of cephalosporin derivative” (Teijin Limited, priority 1984, dated 1987).
Values after ≈ are worked out from the molar mass of the structure shown. Where two headings read alike, the source gives them in different places.

Experiments:
[1] = type: physicochemical; details: sealed brown vials
Method: (2) The trihydrate, monohydrate, hemihydrate, and anhydride were sealed up in the brown vials respectively and stored at 85° C. and were analyzed by high performance liquid chromatography later. The result is shown in the following table (residuum percentage: %).

moisture uptake = type: physicochemical
physchem = details: water
[2] = tested on: Gram-positive and Gram-negative bacterials; details: Japanese Laid-Open Patent Publication No. 219292/1984; cited from earlier work
[3] = tested on: various kinds of Gram-positive and Gram-negative bacterias; experiment: antibacterial activity against Gram-positive and Gram-negative bacteria (general statement); type: cell-based
Typhoid bacillus 901 = experiment: antibacterial activity, agar dilution plating method (MIC); type: cell-based
Method: (§1) (ii) The antibacterial activity of the obtained amorphous substance was determined according to the ordinary agar dilution plating method (see the Chemotherapy, 23(8), 1 (1975), of Japan Chemotherapy Society).

Proteus vulgaris OX-19 = experiment: as above; type: cell-based; details: OX19
Method: as §1

[4] = tested on: Aerobacter aerogenes ATCC 13048; experiment: as above; type: cell-based; details: Klebsiella aerogenes, ATCC13048
Method: as §1

[5] = tested on: Bacillus prodigiosus IAM 1184; experiment: as above; type: cell-based; details: IAM1184
Method: as §1

[6] = tested on: Staphylococcus aureus FDA 209 PJC-1; experiment: as above; type: cell-based; details: FDA209
Method: as §1

[7] = tested on: Pseudomonas aeruginosa IFO 3445; experiment: as above; type: cell-based; details: IFO3445
Method: as §1

[8] = tested on: Coliform bacillus NIHJ-JC-2; experiment: as above; type: cell-based; details: NIHJJC2
Method: as §1

CO/N=C(\C(=O)N[C@@H]1C(=O)N2C(C(=O)[O-])=C(C[N+]34CCC(CC3)CC4)CS[C@H]12)c1csc(N)n1 [Amorphous substance, (6R,7R)-7-[(Z)-2-(2-aminothiazole-4-yl)-2-methoxyiminoacetoamido]-3-(1-quinuclidiniummethyl)-3-cephem-4-carboxylate]
residuum percentage ([1]; 240 h): 0% | residuum percentage ([1]; 576 h): 0%

CO/N=C(\C(=O)N[C@@H]1C(=O)N2C(C(=O)[O-])=C(C[N+]34CCC(CC3)CC4)CS[C@H]12)c1csc(N)n1 [Anhydride, (6R,7R)-7-[(Z)-2-(2-aminothiazole-4-yl)-2-methoxyiminoacetoamido]-3-(1-quinuclidiniummethyl)-3-cephem-4-carboxylate]
conversion upon being allowed to take up moisture (moisture uptake): reversionally converted back to the original trihydrate | residuum percentage ([1]; 240 h): 97.5% | residuum percentage ([1]; 576 h): 86.0%

CO/N=C(\C(=O)N[C@@H]1C(=O)N2C(C(=O)[O-])=C(C[N+]34CCC(CC3)CC4)CS[C@H]12)c1csc(N)n1 [Hemihydrate, (6R,7R)-7-[(Z)-2-(2-aminothiazole-4-yl)-2-methoxyiminoacetoamido]-3-(1-quinuclidiniummethyl)-3-cephem-4-carboxylate]
conversion upon being allowed to take up moisture (moisture uptake): reversionally converted back to the original trihydrate | residuum percentage ([1]; 240 h): 98.3% | residuum percentage ([1]; 576 h): 86.3%

CO/N=C(\C(=O)N[C@@H]1C(=O)N2C(C(=O)[O-])=C(C[N+]34CCC(CC3)CC4)CS[C@H]12)c1csc(N)n1 [Monohydrate, (6R,7R)-7-[(Z)-2-(2-aminothiazole-4-yl)-2-methoxyiminoacetoamido]-3-(1-quinuclidiniummethyl)-3-cephem-4-carboxylate]
conversion upon being allowed to take up moisture (moisture uptake): reversionally converted back to the original trihydrate | residuum percentage ([1]; 240 h): 96.1% | residuum percentage ([1]; 576 h): 85.5%

CO/N=C(\C(=O)N[C@@H]1C(=O)N2C(C(=O)[O-])=C(C[N+]34CCC(CC3)CC4)CS[C@H]12)c1csc(N)n1 [Trihydrate, (6R,7R)-7-[(Z)-2-(2-aminothiazole-4-yl)-2-methoxyiminoacetoamido]-3-(1-quinuclidiniummethyl)-3-cephem-4-carboxylate]
residuum percentage ([1]; 240 h): 97.0% | residuum percentage ([1]; 576 h): 86.8%

CO/N=C(\C(=O)N[C@@H]1C(=O)N2C(C(=O)[O-])=C(C[N+]34CCC(CC3)CC4)CS[C@H]12)c1csc(N)n1 [cephalosporin derivative A, (6R,7R)-7-[(Z)-2-(2-aminothiazole-4-yl)-2-methoxyiminoacetoamido]-3-(1-quinuclidiniummethyl)-3-cephem-4-carboxylate]
solubility (physchem): ~300 mg/mL (≈ 592000 µM) | antibacterial activity [2]: strong antibacterial activity

CO/N=C(\C(=O)N[C@@H]1C(=O)N2C(C(=O)[O-])=C(C[N+]34CCC(CC3)CC4)CS[C@H]12)c1nsc(N)n1 [cephalosporin derivative B, (6R,7R)-7-[(Z)-2-(5-amino-1-thia-2,4-diazole-3-yl)-2-methoxyiminoacetoamido]-3-(1-quinuclidiniummethyl)-3-cephem-4-carboxylate]
antibacterial activity [3]: strong antibacterial activity | MIC (Typhoid bacillus 901): 0.2 µg/mL (≈ 0.394 µM) | MIC (Proteus vulgaris OX-19): 0.2 µg/mL (≈ 0.394 µM) | MIC [4]: 0.1 µg/mL (≈ 0.197 µM) | MIC [5]: 0.1 µg/mL (≈ 0.197 µM) | MIC [6]: 3.1 µg/mL (≈ 6.11 µM) | MIC [7]: 0.4 µg/mL (≈ 0.788 µM) | MIC [8]: 0.05 µg/mL (≈ 0.0985 µM) | solubility (physchem): ~300 mg/mL (≈ 591000 µM)
